Assay type in all cases: functional
Experiment [1] relates to Mycobacterium tuberculosis. Briefly: Antitubercular activity against Mycobacterium tuberculosis H37Rv assessed as bacterial growth inhibition by micro broth dilution assay. On the technique in general: Broth dilution looks for growth in wells or tubes with falling amounts of substance.
Experiment [2] relates to Mycobacterium tuberculosis. Briefly: Antitubercular activity against Mycobacterium tuberculosis H37Rv assessed as bacterial growth inhibition measured after 7 days by broth microdilution assay. Conditions: 168 h, time 7 day.
Experiment [3] relates to Mycobacterium tuberculosis. The experiment in a line: Antitubercular activity against Mycobacterium tuberculosis H37Rv ATCC 27294 assessed as bacterial growth inhibition measured after 48 hrs by broth dilution method.
Experiment [4] deals with Mycobacterium tuberculosis. The experiment in a line: Antitubercular activity against Mycobacterium tuberculosis H37Rv assessed as bacterial growth inhibition measured after 7 days by MABA method. As to conditions: 168 h, time 7 day. (In general: The colour change of resazurin is a common sign of viable cells or microbes.)
The subject of experiment [5] is Mycobacterium tuberculosis. The experiment in a line: Antitubercular activity against Mycobacterium tuberculosis spec. 210 assessed as bacterial growth inhibition.
The test system of experiment [6] is Mycobacterium tuberculosis. Briefly: Antitubercular activity against Mycobacterium tuberculosis H37Rv ATCC 25618 assessed as bacterial growth inhibition.
The subject of experiment [7] is Mycobacterium tuberculosis. The experiment in a line: Antitubercular activity against Mycobacterium tuberculosis spec. 192 assessed as bacterial growth inhibition.
The subject of experiment [8] is Mycobacterium tuberculosis. Briefly: Antitubercular activity against Mycobacterium tuberculosis H37Rv assessed as bacterial growth inhibition.
Experiment [9] relates to Mycobacterium tuberculosis. Briefly: Antitubercular activity against Mycobacterium tuberculosis H37Rv ATCC 27294 assessed as bacterial growth inhibition by agar dilution method. In general terms: Agar dilution tests growth on a series of plates holding different concentrations.
Experiment [10] deals with Mycobacterium tuberculosis. Briefly: Antitubercular activity against Mycobacterium tuberculosis H37Rv assessed as bacterial growth inhibition measured after 7 days by REMA method. Conditions: 168 h, time 7 day.
The subject of experiment [11] is Mycobacterium tuberculosis. The experiment in a line: Antitubercular activity against active stage of Mycobacterium tuberculosis H37Ra ATCC 25177 assessed as bacterial growth inhibition by XTT assay.
Experiment [12] has as its system Mycobacterium tuberculosis. Briefly: Antitubercular activity against dormant stage of Mycobacterium tuberculosis H37Ra ATCC 25177 assessed as bacterial growth inhibition by XTT assay.
In experiment [13] the test system is Mycobacterium tuberculosis. The experiment in a line: Antitubercular activity against Mycobacterium tuberculosis H37Rv assessed as reduction in relative light units at 25 ug/ml incubated for 4 hrs followed by addition of D-luciferin by luciferase based luminometer analysis relative to control. Further details: scale not given: the % may be the effect or the level left. As to conditions: dose 25 µg/ml.

Experiment [14] relates to Mycobacterium tuberculosis. Briefly: Antitubercular activity against Mycobacterium tuberculosis H37Rv assessed as reduction in relative light units at 5 ug/ml incubated for 4 hrs followed by addition of D-luciferin by luciferase based luminometer analysis relative to control. Further details: scale not given: the % may be the effect or the level left. Conditions: dose 5 µg/ml.

The test system of experiment [15] is Mycobacterium tuberculosis. The experiment in a line: Antitubercular activity against Mycobacterium tuberculosis H37Rv assessed as bacterial growth inhibition at 6.25 ug/ml measured after 5 to 8 days by radiometric analysis relative to control. Conditions: dose 6.25 µg/ml; time 5-8 day. Further details: scale not given: the % may be the effect or the level left.

The subject of experiment [16] is Mycobacterium tuberculosis. The experiment in a line: Antitubercular activity against Mycobacterium tuberculosis H37Rv ATCC 27294 assessed as bacterial growth inhibition.

≈ marks a conversion by molar mass, not a printed value.

On to `CC(C)=CCC/C(C)=C/COc1ccc(/C=C/c2nnc3c4ccccc4cnn23)cc1`, for which, in experiment [1], the MIC (commonly the least concentration at which growth counts as inhibited) is 0.5 µg/mL.

Turning to `O=[N+]([O-])c1ncn(CCCCNS(=O)(=O)c2ccc(Cl)s2)n1`, the minimum inhibitory concentration (MIC) in experiment [2] was found to be 3.13 µM (≈ 1.15 µg/mL). Still for that read-out and setting: then `O=[N+]([O-])c1ncn(CCCCNS(=O)(=O)c2cc(Cl)c(Cl)s2)n1`, with 1.56 µM (≈ 0.624 µg/mL).

Take `C[C@]1(COc2ccc(-n3cc(COc4ccc(OC(F)(F)F)cc4)nn3)cc2)Cn2cc([N+](=O)[O-])nc2O1`: the MIC in experiment [3] came to 0.23 µM (≈ 0.122 µg/mL).

Take `CCCCCc1ccc(-c2cn(CC(O)COc3ccc4c(c3)OC3(CCCCC3)CC4=O)nn2)cc1` (configuration not stated): the MIC in experiment [4] amounted to 0.78 µg/mL (≈ 1.55 µM). Turning to `COc1ccc(-n2cc(Cn3nc(-c4ccccc4)c4c3CCN(C(=O)Nc3ccccc3)C4)nn2)cc1`, the minimal inhibitory concentration (MIC) in [5], in [6] and in experiment [7] was 24.7 µM (≈ 12.5 µg/mL) each time.

Take `COc1ccc(-n2nnc3c2CCC2(C=Cc4cc(Cl)ccc4O2)C3)cc1` (configuration not stated): in experiment [4], the MIC was 1.56 µg/mL (≈ 4.11 µM).

In the case of `COc1ccc(-n2nnc3c2CCC2(C=Cc4cc(C)ccc4O2)C3)cc1` (configuration not stated), the MIC in [4] was 1.56 µg/mL (≈ 4.34 µM). Regarding `O=C1Nc2ccccc2/C1=N\OCc1cn(Cc2ccc(Cl)cc2)nn1`, in experiment [8], the MIC was found to be 1.56 µg/mL (≈ 4.24 µM). Take `CC1(C)OC2C3OC(C)(C)O[C@H]3C(Cn3cc(N4C(=O)CCCC4=O)nn3)O[C@@H]2O1` (some centres not stated): the MIC in experiment [9] is 3.12 µg/mL (≈ 7.4 µM). With `O=c1nc(NCc2cn(-c3ccc(Cl)cc3)nn2)sc2c(Cl)cc(C(F)(F)F)cc12`, the MIC in [10] was determined as 0.03 µg/mL (≈ 0.0635 µM). Turning to `O=c1nc(NCc2cn(-c3ccc(Cl)cc3)nn2)sc2c(Cl)cc(Cl)cc12`, the MIC in [10] worked out at 0.03 µg/mL (≈ 0.0684 µM). Consider `Nc1ccc(-c2n[nH]c(=S)[nH]2)cc1`, for which the MIC in [11] was greater than 30 µg/mL; in experiment [12], 0.46 µg/mL (≈ 2.39 µM).

In the case of `O=c1nc(NCc2cn(-c3ccc(Cl)cc3)nn2)sc2c(Cl)cc(Br)cc12`, the MIC in experiment [10] was determined as 0.03 µg/mL (≈ 0.0621 µM).

As to `O=C1Nc2ccccc2/C1=N\OCc1cn(Cc2ccc(F)cc2)nn1`, the MIC in experiment [8] worked out at 0.78 µg/mL (≈ 2.22 µM).

In the case of `O=c1nc(NCc2cn(-c3ccc(Cl)cc3)nn2)sc2c(Cl)cc(F)cc12`, in [10], the MIC came out at 0.03 µg/mL (≈ 0.071 µM). Consider `CCCCCCc1cn(CCCC2C3CC4CC(C3)CC2C4)nn1.Cl` (configuration not stated), for which the minimum inhibitory concentration (MIC) in [8] was 6.2 µg/mL. Turning to `c1ccc(-c2cn(Cc3ccc4ccccc4n3)nn2)cc1`, the Activity in [13] came to 80.79%; in experiment [14], 58.2%. In the case of `Cc1nc2ccccc2n2c(-c3ccc([N+](=O)[O-])cc3)nnc12`, the Activity in [15] was found to be 2%. Consider `COc1ccc(-c2nnc3c(C)nc4ccccc4n23)cc1`, for which the Activity in experiment [15] was 2%. With `CCOC(=O)c1c(-n2cc(-c3ccc4cc(OC)ccc4c3)nn2)c2ccccc2n(C)c1=O`, in [16], the MIC worked out at 3.13 µg/mL (≈ 6.89 µM). `O=C(N/N=C/c1cc(Cl)cc(Cl)c1OCc1cn(-c2ccccc2Cl)nn1)c1ccncc1`: in experiment [8], the minimal inhibitory concentration (MIC) came to 1.56 µg/mL (≈ 3.11 µM). With `Cc1cc(=O)oc2cc(OCc3cn(CCCCCCCCn4cc(COc5cc6oc(=O)cc(C)c6cc5Cl)nn4)nn3)c(Cl)cc12`, the minimum inhibitory concentration (MIC) in experiment [10] turned out to be 1.56 µg/mL (≈ 2.25 µM). On to `O=C1Nc2ccccc2/C1=N\OCc1cn(Cc2cccc(C(F)(F)F)c2)nn1`, for which the MIC in experiment [8] was determined as 3.12 µg/mL (≈ 7.79 µM). On to `Cc1nc2ccccc2n2c(-c3ccc(Cl)cc3)nnc12`, for which the Activity in experiment [15] is 2%. Turning to `O=[N+]([O-])c1ccc(-c2n[nH]c(=S)[nH]2)cc1`, the values for the minimum inhibitory concentration (MIC) in experiment [11] and in experiment [12] were 9.05 µg/mL (≈ 40.7 µM) and 0.64 µg/mL (≈ 2.88 µM), respectively. For the compound `Cc1cc(=O)oc2cc(OCc3cn(CCCCCCCCCCn4cc(COc5cc6oc(=O)cc(C)c6cc5Cl)nn4)nn3)c(Cl)cc12`, the MIC in experiment [10] was 1.56 µg/mL (≈ 2.16 µM).
